# Results reported in patent publication US6699868B2, “Pyridazinyl phenyl hydrazones useful against congestive heart failure” (Orion Corporation, priority 2000, dated 2004).
# pEC50: −log10 of the molar value.
# Assays:
# [1] = system: skinned cardiac fiber; experiment: Calcium sensitizing effect in skinned cardiac fiber; type: cell-based, guinea-pig; conditions: Cavia porcellus; maximum effect; test compound 0.1-10 μM added cumulatively; calcium (pCa 6.0 or 6.2)-induced tension; room temperature; read-out: Change in force/ % change from control (maximum calcium sensitizing effect in skinned fiber)
# Protocol: Experiment 1. Calcium sensitizing effect in skinned cardiac fiber
# The heart of a guinea-pig was excised and perfused with ice-cold saponin (125 mg/l) skinning solution consisting of (mM): K^+-acetate 74.7. EGTA-Na2 10, MgSO4 5.4, ATP-Na2 4, MOPS 20, pH 7.0 (by 1 M KOH). Left ventricular papillary muscle was dissected and sonicated at 10 Watt for 60 s. The distance between ultrasound probe and the papillary muscle was 10 mm. The fibres (<200 μm in diameter) were dissected from the surface of sonicated papillary muscles in the same solution.
# The fibre was glued between platinum wires, one attached to an isometric force transducer (type AE-801,SensoNor, Horten, Norway) and another to a micro manipulator. The fibre was relaxed in a solution consisting of (mM): EGTA-Na2 10, MgSO4 5.4, ATP-Na2 4, MOPS 20. The pH of the solution was adjusted to 7.0 and ionic strength to 0.16 M by the addition of KOH and K^+-acetate. Creatine kinase and creatine phosphate were not added as an ATP generating system because the developed tension was well sustained for the time required for experiment. The calculations for ionic strength and for free calcium (pCa 7.0-6.2) were performed using a suitable program. The fibres were stretched in relaxing solution until resting tension was just noticeable. When the calcium (pCa 6.0 or 6.2)-induced tension had reached steady state the test compound (final concentrations 0.1, 0.3, 1, 3,and 10 μM) was cumulatively added into the solution at 6 min intervals. All the experiments were carried out with fresh fibres at normal room temperature.
# [2] = system: isolated heart; experiment: Effect in left ventricular pressure derivatives in isolated heart (Langendorff); conditions: Cavia porcellus; isolated guinea-pig heart, constant pressure 50 mmHg, 37° C.; read-out: EC50 on maximal positive derivative of the left ventricular systolic pressure
# Protocol: Experiment 2. Effect in left ventricular pressure derivatives in isolated heart
# After sacrification the heart of a guinea-pig was rapidly excised and rinsed in oxygenated perfusion buffer. A cannula was inserted into the aorta and secured with a ligature. Retrograde perfusion began as soon as the heart was placed in a thermostatically controlled moist chamber of the Langendorff apparatus (Hugo Sachs Elektronik, KG). Modified Tyrode solution (37° C.), equilibrated in a thermostatically controlled bulb oxygenator with carbogen (95% O2 and 5% CO2), was used as a perfusion buffer. The composition of the Tyrode solution was (in mM): NaCl 135; MgCl2×6H2O 1; KCl 5; CaCl2×2H2O 2; NaHCO3 15; Na2HPO4×2H2O 1; glucose 10; pH 7.3-7.4. The perfusion buffer was delivered at the top of the oxygenator by a pump and driven automatically by its controller. Subsequently, the buffer was delivered into the bulbs of the oxygenator chamber by a rotating disk. It was dispersed by making a thin fluid film on a large inner oxygenator surface in O2/CO2 atmosphere leading to saturation of the perfusate with oxygen (partial pressure 660 mmHg at 37° C.).
# The experiments were carried out under constant pressure condition (50 mmHg). After a short prestabilization (10 min) a latex balloon (size 4) was carefully placed into the left ventricle through the left pulmonary vein and the left atrium. The latex balloon was attached to a stainless-steel cannula coupled with a pressure transducer. The latex balloon, the cannula and the chamber of the pressure transducer were carefully filled with ethylene glycol/water (1:1) mixture avoiding any air-bubble. The isovolumetric left ventricular pressure was recorded through the pressure transducer. At the beginning of the experiment, the volume of the balloon was adjusted to obtain a diastolic pressure of approximately 5 mmHg. Before starting the experiment the heart was allowed to stabilise further for 30-50 min. The systolic and end-diastolic left ventricular pressures were recorded for calculating the maximal positive and negative derivatives of the left ventricular pressure.
Compound,pEC50 [2],melting point,Emax [1]
"CC(=NNc1ccc(C2=NNC(=O)CC2C)cc1)c1cc(O)ccc1O (stereo not drawn) [Example 35, 6-(4-{N′-[1-(2,5-Dihydroxy-phenyl)-ethylidene]-hydrazino}-phenyl)-5-methyl-4,5-dihydro-2H-pyridazin-3-one]",6.51,279 to 284 °C,25.4%
"COc1c(O)ccc(C=NNc2ccc(C3=NNC(=O)CC3C)cc2)c1[N+](=O)[O-] (stereo not drawn) [Example 6, 6-{4-[N′-(4-Hydroxy-3-methoxy-2-nitro-benzylidene)-hydrazino]-phenyl}-5-methyl-4,5-dihydro-2H-pyridazin-3-one]",6.51,235 to 239 °C,32.9%
"CCCc1c(O)ccc(C=NNc2ccc(C3=NNC(=O)CC3C)cc2)c1O (stereo not drawn) [Example 43, 6-{4-[N′-(2,4-Dihydroxy-3-propyl-benzylidene)-hydrazino]-phenyl}-5-methyl-4,5-dihydro-2H-pyridazin-3-one]",5.76,160 to 170 °C,39%

# Continued, in another order:
pEC50 [2],melting point,Compound,Emax [1]
6.40,259 to 261 °C,"CC(=NNc1ccc(C2=NNC(=O)CC2C)cc1)c1ccc(O)cc1O (stereo not drawn) [Example 33, 6-(4-{N′-[1-(2,4-Dihydroxy-phenyl)-ethylidene]-hydrazino}-phenyl)-5-methyl-4,5-dihydro-2H-pyridazin-3-one]",55.2%
5.52,303 to 310 °C,"Cc1cc(=O)[nH]nc1-c1ccc(NN=Cc2ccc(O)cc2O)cc1 [Example 21, 6-{4-[N′-(2,4-Dihydroxybenzylidene)hydrazino]phenyl}-5-methyl-2H-pyridazin-3-one]",44.2%
